Experiments:
[1] = molecular target: T1, PDIA3 a′ domain (residues 377–505) (Homo sapiens, UniProt P30101); assay: Fluorescence quenching titration of isolated a′ domain; assay type: binding; details: a′ domain 1 μM, reduced form; data not shown
T1 construct: second redox-active domain (a′ domain, residues 377–505); made in house; host or cells: E. coli BL21 (vector pET29)
T1 sequence (P30101 377-505): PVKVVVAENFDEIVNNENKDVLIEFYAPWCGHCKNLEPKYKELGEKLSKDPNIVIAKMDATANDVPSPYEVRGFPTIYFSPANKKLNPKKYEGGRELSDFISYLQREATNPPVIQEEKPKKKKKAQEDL
From the text: Human recombinant PDIA3 was cloned and expressed in E. coli strain BL21 using the expression vector pET21 (Novagen) as previously described. The coding sequence for the second redox-active domain (a′ domain, residues 377–505) was amplified by PCR as previously described and cloned in the expression vector pET29 (Novagen). Recombinant proteins were expressed in E. coli strain BL21 and purified by ammonium sulphate fractionation, ion exchange, and heparin chromatography. Protein purification was evaluated by SDS-PAGE and concentration was determined spectrophotometrically (PDIA3 ℇ 280 reduced form = 44,810 M^−1 cm^−1; a′ domain ℇ 280 reduced form = 14,400 M^−1 cm^−1).
Quantitative analysis of the interaction between individual flavonoids and PDIA3 was performed by fluorimetric titration. Fluorescence spectra were recorded using a SPEX-FluoroMax spectrofluorimeter (Horiba Scientific) from 300 to 500 nm with excitation at 290 nm using a 10 mm path length quartz fluorescence cuvette and under continuous stirring. The excitation and emission slits were both set to 5 nm and scan speed was 120 nm·min^−1. […] Fluorescence spectra of appropriate blanks (flavonoids without proteins) were recorded under the same experimental conditions and subtracted from the corresponding flavonoid-protein system to correct the fluorescence background. Fluorescence intensities recorded at 338 nm were used for quenching analysis and data obtained for each flavonoid are the average of at least three independent titration experiments.
Quenching analysis was performed on PDIA3 (0.5 μM), in the reduced form, by adding stepwise increasing concentration of each molecule and recording the protein fluorescence spectra. […] Quenching effect on protein and Stern-Volmer quenching constant (K SV) were calculated from the fluorescence intensities at 338 nm of protein alone (F 0) and in the presence of increasing concentration of each ligand molecule (F) using the Stern-Volmer equation [40]: (1) F0/F=1+KSVL, where L is the ligand concentration. […]

PDIA3 [2] = molecular target: T2, PDIA3 (Homo sapiens, UniProt P30101); assay: Differential scanning fluorimetry (thermal stability, SYPRO Orange); assay type: binding; details: flavonoid up to 50 μM, mainly at the highest concentration
T2 construct: made in house; host or cells: E. coli BL21 (vector pET21)
T2 sequence (P30101 25-505): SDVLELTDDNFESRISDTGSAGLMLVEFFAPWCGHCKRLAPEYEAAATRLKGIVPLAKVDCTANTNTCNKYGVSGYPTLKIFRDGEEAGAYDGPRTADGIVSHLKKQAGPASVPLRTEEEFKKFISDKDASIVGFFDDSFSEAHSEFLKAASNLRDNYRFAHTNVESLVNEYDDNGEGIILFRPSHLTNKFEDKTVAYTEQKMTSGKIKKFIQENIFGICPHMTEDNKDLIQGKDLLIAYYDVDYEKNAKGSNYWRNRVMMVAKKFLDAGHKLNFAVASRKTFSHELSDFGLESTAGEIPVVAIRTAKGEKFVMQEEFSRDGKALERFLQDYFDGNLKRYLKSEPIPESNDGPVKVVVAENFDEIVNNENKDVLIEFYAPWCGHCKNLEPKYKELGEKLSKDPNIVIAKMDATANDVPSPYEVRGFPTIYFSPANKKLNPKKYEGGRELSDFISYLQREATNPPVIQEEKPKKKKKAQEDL
Experimental: Protein stability was tested by the fluorescence-based thermal stability assay or differential scanning fluorimetry (DSF) developed by Pantoliano and coworkers. DSF records the fluorescence emission signal from the binding of a dye (SYPRO orange) to the exposed hydrophobic patches upon protein unfolding. Fluorescence measurements were performed using a CFX96 Connect RT-PCR instrument (BioRad). 18 μl aliquots of protein solution (1 μM), freshly diluted in Tris Buffered saline (50 mM TrisHCl, pH 8.0, 150 mM NaCl) containing 0.1 mM DTT, 0.2 mM EDTA, and 1 : 1000 dilution of SYPRO Orange (50 mM stock solution in DMSO), were distributed in a 96-well plate. Sample wells were addition of increasing concentration (up to 50 μM) of individual flavonoid by adding 2 μl of 10-fold concentrated stock solutions freshly prepared. As control, the protein solution was added with 2 μl of the dilution buffer. A melting point analysis was recorded increasing the temperature from 20 to 95°C with an increment of 0.5°C and reading, at each temperature, the fluorescence in fluorescence resonance energy transfer mode (FRET). Each measure was the average of three sample wells reading and each DSF experiment was repeated at least three times. To calculate T m values, DSF data from the melting curve were exported and fitted to Boltzman equation using GraphPad software. Effect of flavonoids was evaluated comparing the T m values in presence and absence of each molecule.

PDIA3 [3] = molecular target: T2, PDIA3; assay: DNA binding activity by EMSA; assay type: biochemical; details: flavonoid 0 to 50 μM
Experimental: EMSA assay was performed using a 79-bp […] obtained by PCR as previously described. Amplified DNA was end-labeled by using 5-fluorescein-modified primers. 10 ng of DNA fragment was incubated with 1 μg of PDIA3 or a′ domain, in presence of increasing concentration of flavonoids (from 0 to 50 μM). Controls were performed using DNA alone and in the presence of each flavonoid. All tests were performed in 20 μl mixtures containing 20 mM Tris-HCl, pH 7.5, 50 mM NaCl, and 10% (v/v) glycerol. Samples were incubated for 1 hour at 25°C and then resolved on 5% polyacrylamide gels in 0,25% TBE buffer (22.5 mM Tris-borate, 5 mM EDTA, pH 8.3) at 150 V. Gel images were recorded using a ChemiDoc MP Imaging System (BioRad) equipped with an epi-blue excitation lamp and a 520 nm emission filter.

Structure (SMILES)	Affinity for isolated a′ domain [1]	Effect on PDIA3 stability (T m) (PDIA3 [2])	Effect on DNA binding activity of PDIA3 (PDIA3 [3])
O=c1cc(-c2ccc(O)cc2)oc2cc(O)cc(O)c12 [Apigenin, apigenin]	greatest affinity	similar, but less pronounced, effect	–
COc1ccc(-c2cc(=O)c3c(O)c(OC)c(OC)cc3o2)cc1O [Eupatorin, eupatorin]	greatest affinity	–	did not significantly affect and None
COc1ccc(-c2cc(=O)c3c(OC)c(OC)c(OC)cc3o2)cc1O [Eupatorin-5-methyl ether, eupatorin-5-methyl-ether]	greatest affinity	–	did not significantly affect

From publication PMC5164911, “Comparative Analysis of the Interaction between Different Flavonoids and PDIA3” (Oxidative Medicine and Cellular Longevity, 2016)
